Reference: article PMC12865225 (Clinical and Translational Science, 2026)
Like-named read-outs stand apart in the source and are kept apart here.

How the values were obtained:
OATP1B1 = molecular target: T1, OATP1B1 (Homo sapiens, UniProt Q9Y6L6); assay: Irreversible inhibition (reversibility) assay of OATP1B1; type: cell-based; conditions: for reversibility of OATP1B1 inhibition: wash-out after 15 min preincubation
T1 construct: expressed in transfected cells; host or cells: HEK293 (recombinant baculovirus-mediated transduction)
T1 sequence (Q9Y6L6 1-691): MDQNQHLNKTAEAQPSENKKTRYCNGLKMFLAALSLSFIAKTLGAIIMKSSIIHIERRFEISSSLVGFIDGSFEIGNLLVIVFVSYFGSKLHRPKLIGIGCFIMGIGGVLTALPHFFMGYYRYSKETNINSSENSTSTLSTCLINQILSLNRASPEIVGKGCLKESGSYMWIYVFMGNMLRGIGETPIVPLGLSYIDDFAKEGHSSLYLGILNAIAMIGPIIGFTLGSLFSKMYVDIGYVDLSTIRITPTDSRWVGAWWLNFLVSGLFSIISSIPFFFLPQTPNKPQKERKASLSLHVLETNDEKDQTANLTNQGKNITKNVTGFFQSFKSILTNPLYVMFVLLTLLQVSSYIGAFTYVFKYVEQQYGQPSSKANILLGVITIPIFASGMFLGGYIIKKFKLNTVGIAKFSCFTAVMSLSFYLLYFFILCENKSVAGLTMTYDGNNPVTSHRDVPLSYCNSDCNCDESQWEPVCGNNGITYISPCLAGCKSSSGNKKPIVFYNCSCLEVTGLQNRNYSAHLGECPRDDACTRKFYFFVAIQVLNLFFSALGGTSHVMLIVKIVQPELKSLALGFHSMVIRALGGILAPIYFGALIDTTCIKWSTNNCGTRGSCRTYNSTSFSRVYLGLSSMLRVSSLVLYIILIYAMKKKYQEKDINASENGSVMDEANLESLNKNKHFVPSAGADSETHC
Procedure: were removed and 300 µl of warm TP-buffer was added to each well and incubated for 5 min.
The washing was repeated twice , after which the transport assays were conducted in the presence of 1 µM 2′,7′ -dichlorofluorescein for 5 min. The wells that were pre -incubated with […]
incubated with the vehicle contained three different inhibitor concentrations. After the transport

BCRP = molecular target: T2, BCRP (Homo sapiens, UniProt Q9UNQ0); assay: Efflux transport assay in BCRP HEK293 membrane vesicles; type: biochemical; conditions: 5 and 50 µM
T2 construct: made in house; host or cells: membrane vesicles from HEK293 cells expressing the transporter
T2 sequence (Q9UNQ0 1-655): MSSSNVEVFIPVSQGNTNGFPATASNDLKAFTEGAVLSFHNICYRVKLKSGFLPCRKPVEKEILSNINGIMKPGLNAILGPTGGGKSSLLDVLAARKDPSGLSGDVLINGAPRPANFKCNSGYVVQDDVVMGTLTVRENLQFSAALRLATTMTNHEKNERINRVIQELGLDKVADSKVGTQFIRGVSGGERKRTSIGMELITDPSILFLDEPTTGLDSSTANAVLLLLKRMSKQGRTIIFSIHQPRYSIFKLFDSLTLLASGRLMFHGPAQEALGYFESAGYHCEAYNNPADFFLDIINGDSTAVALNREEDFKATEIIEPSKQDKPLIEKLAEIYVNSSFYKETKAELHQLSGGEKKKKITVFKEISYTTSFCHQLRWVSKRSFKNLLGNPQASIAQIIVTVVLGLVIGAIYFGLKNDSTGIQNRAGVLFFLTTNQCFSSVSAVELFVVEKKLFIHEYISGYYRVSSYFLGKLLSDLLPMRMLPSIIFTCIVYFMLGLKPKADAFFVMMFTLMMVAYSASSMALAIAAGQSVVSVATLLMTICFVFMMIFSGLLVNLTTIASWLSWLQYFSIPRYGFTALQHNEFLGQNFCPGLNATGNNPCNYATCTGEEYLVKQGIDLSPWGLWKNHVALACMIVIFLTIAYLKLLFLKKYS
Procedure: Membrane vesicles, 5 μL (7.5 μg of total protein), prepared as previously reported, were aliquoted to wells of a conical‐shaped 96‐well plate. The plate was incubated for 10 min at +37°C before the initiation of transport by adding 25 μL of TS‐buffer (10 mM Tris, 250 mM sucrose, pH adjusted to 7.4 with HEPES) containing magnesium chloride (10 mM final in the reaction), adenosine triphosphate (ATP) or adenosine monophosphate (AMP), 4 mM final in the reaction, and the transporter substrate and inhibitor. Each experiment included triplicate samples for both ATP and AMP samples. The concentrations of rosuvastatin and N‐methyl‐quinidine were 1 μM in the BCRP and P‐gp vesicle inhibition assays, respectively. […] The transport reactions were quenched by adding 200 μL of cold TS‐buffer to each well and transferring the samples to a 96‐multiwell 1.0 μm glass fiber filter plate (Merck Millipore, Darmstadt, Germany) kept under vacuum. Wells were further washed four times with cold TS‐buffer, after which the plate was dried under vacuum. The compounds were eluted from the plate by applying 100 μL of 75% methanol containing 0.1% formic acid to each well and incubating at 250 RPM for 30 min before centrifuging the samples to an analysis plate at 2800 g for 2 min. For the rosuvastatin samples, the elution solvent contained rosuvastin‐d6 as the internal standard. […]

[1] = 1 µM 2′,7′-dichlorofluorescein, 5 min, read-out: IC50 OATP1B1, inhibitor present only during the transport assay
[2] = cells washed three times before the transport assay, read-out: IC50 OATP1B1, inhibitor present only during the preincubation

Row | SMILES | IC50 (OATP1B1; [1]) [µM] | IC50 (OATP1B1; [2]) [µM] | reversibility of OATP1B1 inhibition (OATP1B1) | transport by BCRP (BCRP)
1 | Cc1onc(-c2c(F)cccc2Cl)c1C(=O)N[C@@H]1C(=O)N2[C@@H]1SC(C)(C)[C@@H]2C(=O)O [Flucloxacillin] | 15.6 | 455 | reversible | did not transport
2 | Cc1onc(-c2c(Cl)cccc2Cl)c1C(=O)N[C@@H]1C(=O)N2[C@@H]1SC(C)(C)[C@@H]2C(=O)O [Dicloxacillin] | 4.82 | 238 | reversible | did not transport
